Reference: ChEMBL document CHEMBL5620386, “Synthesis, biological screening and in silico studies of new N-phenyl-4-(1,3-diaryl-1H-pyrazol-4-yl)thiazol-2-amine derivatives as potential antifungal and antitubercular agents” (Eur J Med Chem, 2023)
Values after ≈ are worked out from the molar mass of the structure shown. Values joined by “and” are separate entries in the source; they are usually repeats but may differ in a detail not shown here. Equal values may be shown once. Active and inactive are the calls of the source. The rule behind the calls is not given here.

Experiments:
[1] = test system: Mycobacterium tuberculosis; test: Antitubercular activity Mycobacterium tuberculosis H37Rv strain ATCC No- 27294 assessed as prevention of color change from blue to pink using Almar Blue measured after 24 hrs by MABA assay; format: functional
Proteus mirabilis [2] = test: Antimicrobial activity against Proteus mirabilis NCIM 2388 assessed as absence of growth by well diffusion method; format: functional
Proteus mirabilis [3] = test: Antimicrobial activity against Proteus mirabilis NCIM 2388 assessed as zone of inhibition by well diffusion method; format: functional
Aspergillus niger [4] = test: Antifungal activity against Aspergillus niger ATCC 504 assessed as absence of growth by well diffusion method; format: functional
Aspergillus niger [5] = test: Antifungal activity against Aspergillus niger ATCC 504 assessed as zone of inhibition by well diffusion method; format: functional
Staphylococcus aureus [6] = test: Antimicrobial activity against Staphylococcus aureus NCIM 2178 assessed as absence of growth by well diffusion method; format: functional
Bacillus subtilis [7] = test: Antimicrobial activity against Bacillus subtilis NCIM 2063 assessed as zone of inhibition by well diffusion method; format: functional
Bacillus subtilis [8] = test: Antimicrobial activity against Bacillus subtilis NCIM 2063 assessed as absence of growth by well diffusion method; format: functional
Candida albicans = test: Antifungal activity against Candida albicans NCIM 3100 assessed as zone of inhibition by well diffusion method; format: functional
Staphylococcus aureus [9] = test: Antimicrobial activity against Staphylococcus aureus NCIM 2178 assessed as zone of inhibition by well diffusion method; format: functional
Escherichia coli = test: Antimicrobial activity against Escherichia coli NCIM 2574 assessed as zone of inhibition by well diffusion method; format: functional
[10] = Cytotoxicity against mouse 3T3-L1 cells assessed as cell viability at 25 ug/ml measured after 24 hrs by MTT assay relative to control; format: toxicity, cell-based; details: at 25 µg/mL, read-out: Activity
[11] = Cytotoxicity against mouse 3T3-L1 cells assessed as cell viability at 12.5 ug/ml measured after 24 hrs by MTT assay relative to control; format: toxicity, cell-based; details: at 12.5 µg/mL, read-out: Activity

## Fc1ccc(-c2nn(-c3ccc(F)cc3)cc2-c2csc(Nc3ccccc3)n2)cc1
[1]
  MIC: 25 µg/mL and 58.1 µM
Proteus mirabilis [2]
  MIC: 125 µg/mL (≈ 290 µM)
Proteus mirabilis [3]
  inhibition zone (IZ): 15.2 mm
Aspergillus niger [4]
  MIC: 15.6 µg/mL and 36.3 µM
Aspergillus niger [5]
  inhibition zone (IZ): 19.25 mm
Staphylococcus aureus [6]
  MIC: 125 µg/mL (≈ 290 µM)
Bacillus subtilis [7]
  inhibition zone (IZ): 14 mm
Bacillus subtilis [8]
  MIC: 125 µg/mL (≈ 290 µM)
Candida albicans
  inhibition zone (IZ): 12.2 mm
Staphylococcus aureus [9]
  inhibition zone (IZ): 15 mm
Escherichia coli
  inhibition zone (IZ): inactive

## CN[C@@H]1[C@H](O[C@H]2[C@H](O[C@H]3[C@H](O)[C@@H](O)[C@H](N=C(N)N)[C@@H](O)[C@@H]3N=C(N)N)O[C@@H](C)[C@]2(O)C=O)O[C@@H](CO)[C@H](O)[C@H]1O [STREPTOMYCIN]
Proteus mirabilis [2]
  MIC: 7.82 µg/mL and 25.5 µM
Proteus mirabilis [3]
  inhibition zone (IZ): 21 mm
Aspergillus niger [4]
  MIC: inactive
Staphylococcus aureus [6]
  MIC: 7.82 µg/mL and 13.4 µM
Bacillus subtilis [7]
  inhibition zone (IZ): 18.5 mm
Bacillus subtilis [8]
  MIC: 7.82 µg/mL and 13.4 µM
Staphylococcus aureus [9]
  inhibition zone (IZ): 21 mm

## Fc1ccc(-c2nn(-c3ccc(F)cc3)cc2-c2csc(Nc3ccc(Cl)cc3)n2)cc1
[1]
  MIC: 25 µg/mL and 53.9 µM
Proteus mirabilis [2]
  MIC: 125 µg/mL (≈ 269 µM)
Proteus mirabilis [3]
  inhibition zone (IZ): 15 mm
Aspergillus niger [4]
  MIC: 15.6 µg/mL and 33.7 µM
Aspergillus niger [5]
  inhibition zone (IZ): 19.6 mm
Staphylococcus aureus [6]
  MIC: 125 µg/mL (≈ 269 µM)
Bacillus subtilis [7]
  inhibition zone (IZ): 14 mm
Bacillus subtilis [8]
  MIC: 125 µg/mL (≈ 269 µM)
Candida albicans
  inhibition zone (IZ): 10 mm
Staphylococcus aureus [9]
  inhibition zone (IZ): 14 mm
Escherichia coli
  inhibition zone (IZ): 12 mm

## COc1ccc(Nc2nc(-c3cn(-c4ccccc4)nc3-c3ccc(Cl)cc3)cs2)cc1
[1]
  MIC: 1.6 µg/mL and 3.49 µM
Proteus mirabilis [2]
  MIC: 125 µg/mL (≈ 272 µM)
Proteus mirabilis [3]
  inhibition zone (IZ): 14 mm
Aspergillus niger [4]
  MIC: 15.6 µg/mL and 32.5 µM
Aspergillus niger [5]
  inhibition zone (IZ): 18.2 mm
Staphylococcus aureus [6]
  MIC: 125 µg/mL (≈ 272 µM)
Bacillus subtilis [7]
  inhibition zone (IZ): 14.8 mm
Bacillus subtilis [8]
  MIC: 125 µg/mL (≈ 272 µM)
Candida albicans
  inhibition zone (IZ): 10 mm
Staphylococcus aureus [9]
  inhibition zone (IZ): 15 mm
Escherichia coli
  inhibition zone (IZ): inactive

## Cc1ccc(Nc2nc(-c3cn(-c4ccc(F)cc4)nc3-c3ccc(F)cc3)cs2)cc1
[1]
  MIC: 3.12 µg/mL and 7.03 µM
Proteus mirabilis [2]
  MIC: 125 µg/mL (≈ 281 µM)
Proteus mirabilis [3]
  inhibition zone (IZ): 15 mm
[10]
  viability at 24 h, 25 ug/ml: 114%
[11]
  viability at 24 h, 12.5 ug/ml: 99.5%
Aspergillus niger [4]
  MIC: 15.6 µg/mL and 35.2 µM
Aspergillus niger [5]
  inhibition zone (IZ): 18.6 mm
Bacillus subtilis [7]
  inhibition zone (IZ): 18 mm
Bacillus subtilis [8]
  MIC: 15.6 µg/mL and 35.2 µM
Candida albicans
  inhibition zone (IZ): 10.2 mm
Staphylococcus aureus [9]
  inhibition zone (IZ): 13 mm
Escherichia coli
  inhibition zone (IZ): inactive

## Cc1ccc(Nc2nc(-c3cn(-c4ccc(F)cc4)nc3-c3ccccc3)cs2)cc1
[1]
  MIC: 3.12 µg/mL and 7.34 µM
Proteus mirabilis [2]
  MIC: 125 µg/mL (≈ 293 µM)
Proteus mirabilis [3]
  inhibition zone (IZ): 14.2 mm
[10]
  viability at 24 h, 25 ug/ml: 96.2%
[11]
  viability at 24 h, 12.5 ug/ml: 102%
Aspergillus niger [4]
  MIC: 15.6 µg/mL and 36.7 µM
Aspergillus niger [5]
  inhibition zone (IZ): 18.6 mm
Staphylococcus aureus [6]
  MIC: 62.5 µg/mL and 147 µM
Bacillus subtilis [7]
  inhibition zone (IZ): 14.2 mm
Bacillus subtilis [8]
  MIC: 125 µg/mL (≈ 293 µM)
Candida albicans
  inhibition zone (IZ): 10.2 mm
Staphylococcus aureus [9]
  inhibition zone (IZ): 17 mm
Escherichia coli
  inhibition zone (IZ): inactive

## OC(Cn1cncn1)(Cn1cncn1)c1ccc(F)cc1F [FLUCONAZOLE]
Proteus mirabilis [2]
  MIC: inactive
Aspergillus niger [4]
  MIC: 7.82 µg/mL and 25.5 µM
Staphylococcus aureus [6]
  MIC: inactive
Bacillus subtilis [8]
  MIC: inactive
Candida albicans
  inhibition zone (IZ): 21.6 mm

## COc1ccc(Nc2nc(-c3cn(-c4ccc(F)cc4)nc3-c3ccc(F)cc3)cs2)cc1
[1]
  MIC: 3.12 µg/mL and 6.78 µM
Proteus mirabilis [2]
  MIC: 125 µg/mL (≈ 271 µM)
Proteus mirabilis [3]
  inhibition zone (IZ): 14 mm
[10]
  viability at 24 h, 25 ug/ml: 102%
[11]
  viability at 24 h, 12.5 ug/ml: 113%
Aspergillus niger [4]
  MIC: 15.6 µg/mL and 34 µM
Aspergillus niger [5]
  inhibition zone (IZ): 19 mm
Staphylococcus aureus [6]
  MIC: 125 µg/mL (≈ 271 µM)
Bacillus subtilis [7]
  inhibition zone (IZ): 12 mm
Bacillus subtilis [8]
  MIC: 7.82 µg/mL (≈ 17 µM)
Candida albicans
  inhibition zone (IZ): 11.6 mm
Staphylococcus aureus [9]
  inhibition zone (IZ): 15 mm
Escherichia coli
  inhibition zone (IZ): inactive
